Test results: ChEMBL document CHEMBL1126161, “3,4-Dihydroquinolin-2(1H)-ones as combined inhibitors of thromboxane A2 synthase and cAMP phosphodiesterase” (J Med Chem, 1992)
pIC50: −log10 of the molar value.

Experiments:
Homo sapiens [1] = species on record: Homo sapiens; test: In vitro inhibition of ADP-induced aggregation of human PRP in the presence of pig aortal microsomes (PAM).; format: functional
Homo sapiens [2] = species on record: Homo sapiens; test: Inhibition of ADP-induced aggregation of human PRP in the absence of pig aortal microsomes (PAM); format: functional
Homo sapiens [3] = species on record: Homo sapiens; test: Ratio of IC50(w/oPAM)/IC50(w/PAM); format: functional
Mus musculus [4] = species on record: Mus musculus; test: Time course of protection against mortality in a pulmonary thromboembolism model in mice after -7h; format: functional
Homo sapiens [5] = species on record: Homo sapiens; test: Inhibition of ADP-induced platelet aggregation of human PRP in the presence of pig aortal microsomes (PAM); format: functional
Mus musculus [6] = test: Protection against mortality in pulmonary thromboembolism model in mice at 9 mg/kg; format: functional
Mus musculus [7] = test: Protection against mortality in pulmonary thromboembolism model in mice at 30 mg/kg; format: functional
Mus musculus [8] = species on record: Mus musculus; test: Time course of protection against mortality in a pulmonary thromboembolism model in mice after -3h; format: functional
Homo sapiens [9] = species on record: Homo sapiens; test: Inhibition of ADP-induced platelet aggregation of human PRP without pig aortal microsomes (PAM); format: functional
Mus musculus [10] = species on record: Mus musculus; test: Time course of protection against mortality in a pulmonary thromboembolism model in mice after -5h; format: functional
Mus musculus [11] = test: Protection against mortality in pulmonary thromboembolism model in mice at 12 mg/kg; format: functional
Mus musculus [12] = species on record: Mus musculus; test: Time course of protection against mortality in a pulmonary thromboembolism model in mice after -1h; format: functional
Mus musculus [13] = test: Protection against mortality in pulmonary thromboembolism model in mice at 1 mg/kg; format: functional
Mus musculus [14] = test: Protection against mortality in pulmonary thromboembolism model in mice at 3 mg/kg; format: functional
Rattus norvegicus [15] = test: Ex vivo inhibition of blood platelet aggregation in rats at 100 mg/kg peroral dose after 3 hr; format: functional; conditions: route oral
Homo sapiens [16] = species on record: Homo sapiens; test: Inhibition of [14C]arachidonic acid induced TXB2 formation at 5 uM (Control TXB2 = 14.9+/-2.5)
Rattus norvegicus [17] = test: Ex vivo inhibition of blood platelet aggregation in rats at 100 mg/kg peroral dose after 5 hr; format: functional; conditions: route oral
Homo sapiens [18] = species on record: Homo sapiens; test: Inhibition of [14C]arachidonic acid induced platelet aggregation at 50 uM (Control 6-keto-PGF1-alpha = 1.45+/-0.6); format: functional
Rattus norvegicus [19] = test: Effect of TXA2 synthase inhibitor (compound) on serum TXB2 level in rats at 50 mg/kg po, after 2 hr.; format: functional
Rattus norvegicus [20] = test: Ex vivo inhibition of blood platelet aggregation in rats at 100 mg/kg peroral dose after 8 hr; format: functional; conditions: route oral
Homo sapiens [21] = species on record: Homo sapiens; test: Inhibition of [14C]arachidonic acid induced platelet aggregation at 50 uM (Control TXB2 = 14.9+/-2.5); format: functional
Rattus norvegicus [22] = test: Antihypertensive activity in conscious spontaneously hypertensive rat (SHR), percent change in Systolic blood pressure (SBP) after 2 hr at 10 mg/kg peroral dose; format: functional; conditions: route oral
Rattus norvegicus [23] = test: Antihypertensive activity in conscious spontaneously hypertensive rat (SHR), percent change in heart rate (beats/min) after 2 hr at 10 mg/kg peroral dose; format: functional; conditions: route oral
Rattus norvegicus [24] = test: Antihypertensive activity in conscious spontaneously hypertensive rat (SHR), percent change in Systolic blood pressure (SBP) after 1 hr; format: functional; design: concentration or dose not given beside the values
Rattus norvegicus [25] = test: Antihypertensive activity in conscious spontaneously hypertensive rat (SHR), percent change in heart rate (beats/min) after 1 hr at 10 mg/kg peroral dose; format: functional; conditions: route oral
Rattus norvegicus [26] = test: Antihypertensive activity in conscious spontaneously hypertensive rat (SHR), percent change in Systolic blood pressure (SBP) after 4 hr at 10 mg/kg peroral dose; format: functional; conditions: route oral
Rattus norvegicus [27] = test: Antihypertensive activity in conscious spontaneously hypertensive rat (SHR), percent change in heart rate (beats/min) after 4 hr at 10 mg/kg peroral dose; format: functional; conditions: route oral

`O=C1CCc2cc(CCc3cccnc3)ccc2N1` showed a pIC50 (Homo sapiens [1]) of 5.07.
`O=C1CCc2cc(C(c3ccccc3)c3cccnc3)ccc2N1` (centres undefined) showed a pIC50 (Homo sapiens [1]) of 5.52 and a pIC50 (Homo sapiens [2]) of 4.96.
Molecule `CC(Cn1ccnc1)c1ccc2c(c1)CCC(=O)N2` (centres undefined) has a Ratio (Homo sapiens [3]) of 64, a pIC50 (Homo sapiens [1]) of 5.26 and a pIC50 (Homo sapiens [2]) of 3.46.
With `O=C1CCc2cc(/C(=C/n3ccnc3)c3ccccc3)ccc2N1` the Ratio (Homo sapiens [3]) was 9.6, the pIC50 (Homo sapiens [1]) was 4.55 and the pIC50 (Homo sapiens [2]) was 3.57.
`Cc1c(Cn2ccnc2)c2ccccc2n1CCC(=O)O` [DAZMEGREL] gave a Survival (Mus musculus [4]) of 10%, a pIC50 (Homo sapiens [5]) of 5.70 and a survival at 9 mg/kg (Mus musculus [6]) of 50%. It also gave a survival at 30 mg/kg (Mus musculus [7]) of 20%, a Survival (Mus musculus [8]) of 20% and a pIC50 (Homo sapiens [9]) of 4.01. The Survival (Mus musculus [10]) was 0%, the survival at 12 mg/kg (Mus musculus [11]) was 60% and the Survival (Mus musculus [12]) was 11%. The survival at 1 mg/kg (Mus musculus [13]) was 30% and the survival at 3 mg/kg (Mus musculus [14]) was 30%.
For `Cl.O=C(O)c1ccc(OCCn2ccnc2)cc1` [DAZOXIBEN HYDROCHLORIDE], the inhibition in vivo at 100 mg/kg (Rattus norvegicus [15]) was 23.4%, the Survival (Mus musculus [4]) was 10% and the TXB2 level at 5 µM (Homo sapiens [16]) was 2.4%. It also gave an inhibition in vivo at 100 mg/kg (Rattus norvegicus [17]) of 24.6%, a survival at 9 mg/kg (Mus musculus [6]) of 40% and a survival at 30 mg/kg (Mus musculus [7]) of 50%. For the same molecule, the 6-keto-PGF1α level at 50 µM (Homo sapiens [18]) was 25.2%, the Survival (Mus musculus [8]) was 20% and the Survival (Mus musculus [10]) was 20%. For the same molecule, the survival at 12 mg/kg (Mus musculus [11]) was 50%, the Survival (Mus musculus [12]) was 40% and the inhibition in vivo at 50 mg/kg (Rattus norvegicus [19]) was 74%. For the same molecule, the survival at 1 mg/kg (Mus musculus [13]) was 20%, the inhibition in vivo at 100 mg/kg (Rattus norvegicus [20]) was 50.9% and the inhibition at 50 µM (Homo sapiens [21]) was 1.5%.
For `O=C1CCc2cc(CCn3ccnc3)ccc2N1`, the “Change systolic BP” value (Rattus norvegicus [22]) was -2%, the “Change in heart rate” value (Rattus norvegicus [23]) was 34% and the Ratio (Homo sapiens [3]) was 17. For the same molecule, the “Change systolic BP” value (Rattus norvegicus [24]) was -14%, the pIC50 (Homo sapiens [1]) was 5.08 and the “Change in heart rate” value (Rattus norvegicus [25]) was 17%. The “Change systolic BP” value (Rattus norvegicus [26]) was -13%, the “Change in heart rate” value (Rattus norvegicus [27]) was 12% and the pIC50 (Homo sapiens [2]) was 3.85.
